{"source": "patent US20140023692A1", "about": "“DRUG DELIVERY DEVICE” (priority 2010, published 2014)", "origin": "cited, not measured here", "key": {"[1]": {"conditions": "topical application, rabbit"}, "[2]": {"test_system": "Staphylococcus epidermidis"}, "[3]": {"conditions": "inflamed eyes (intravitreal Staphylococcus aureus, 24 h after inoculation)"}}, "note": "“And” between values parts separate entries of the source, which are not always exact repeats. Equal values may be shown once. Read-outs that look alike come from different tables or passages of the source.", "data": [{"smiles": "O=C(O)c1cn(C2CC2)c2cc(N3CCNCC3)c(F)cc2c1=O", "note": "[ciprofloxacin]", "values": [{"measurement": "MIC90", "setting": "Pseudomonas", "result": "0.50 µg/mL and 0.626 µg/mL"}, {"measurement": "MIC90", "setting": "Streptococcus pyogenes", "result": 0.782, "unit": "µg/mL"}, {"measurement": "MIC90", "setting": "Staphylococcus aureus", "result": "0.57 µg/mL and 0.796 µg/mL"}, {"measurement": "MIC90", "setting": "Bacillus cereus", "result": 0.25, "unit": "µg/mL"}, {"measurement": "MIC90", "setting": "Klebsiella", "result": 0.295, "unit": "µg/mL"}, {"measurement": "Mean aqueous concentration of ciprofloxacin", "setting": "[1]; [3]", "result": 3.65, "unit": "µg/mL"}, {"measurement": "Mean vitreous concentration of ciprofloxacin", "setting": "[1]; [3]", "result": 0.32, "unit": "µg/mL"}, {"measurement": "Mean aqueous concentration of ciprofloxacin", "setting": "[1]; normal eyes", "result": 2.16, "unit": "µg/mL"}, {"measurement": "Mean vitreous concentration of ciprofloxacin", "setting": "[1]; normal eyes", "result": 0.08, "unit": "µg/mL"}, {"measurement": "MIC90", "setting": "Proteus", "result": 0.267, "unit": "µg/mL"}, {"measurement": "MIC90", "setting": "Serratia", "result": 0.12, "unit": "µg/mL"}, {"measurement": "MIC90", "setting": "Haemophilus influenzae", "result": 0.014, "unit": "µg/mL"}, {"measurement": "MIC90", "setting": "Enterobacter", "result": 0.206, "unit": "µg/mL"}, {"measurement": "MIC90", "setting": "[2]", "result": "0.25 µg/mL and 0.375 µg/mL"}, {"measurement": "MIC90", "setting": "Propionibacterium acnes", "result": 0.35, "unit": "µg/mL"}]}]}
